Data on three compounds can be found in patent US5252589A, “Benzocycloheptene derivative and process for preparation thereof” (Tanabe Seikayu Co., Ltd., priority 1992, dated 1993).

Where “and” joins values, the source holds several entries; their conditions need not be identical. Equal entries are not always repeated.

The test system of one data set is urinary bladder. As to the kind of experiment: Inhibitory effect on urinary bladder contractions (carbachol-induced, isolated rat urinary bladder). Particulars: Tyrode solution 37° C., contraction by 1×10^-5 M carbachol, compound added 5 minutes before carbachol, read-out: IC50, concentration of the test compound required to induce 50% inhibition of the pressure. The procedure:
(Inhibitory effect on urinary bladder contractions)
Rats (body weight: 250 to 450 g) were used as the test animals. […] Urinary bladder was filled with 0.8 ml of a physiological saline solution. An ureteral catheter was inserted into the urinary bladder and one end of the catheter was connected to a pressure transducer. The change in intravesical pressure of the bladder was recorded. Contraction was induced by adding 1×10^-5 M carbachol at 30 minutes intervals. After the contraction became stable, the test compound was added to the Tyrode solution 5 minutes before the addition of carbachol.

A short description of data set [1]: Acute oral toxicity in mice. Particulars: 500 mg/kg. The format is in vivo. On the procedure:
For example, when (±)-cis-5-(2-thienyl)-7-isopropylamino-6,7,8,9-tetrahydro-5H-benzocyclohepten-5-ol was orally administered to mice at a dose of 500 mg/kg, no mouse died two days after the administration thereof.

With “(±)-cis-5-(2-thienyl)-7-isopropylamino-6,7,8,9-tetrahydro-5H-benzocyclohepten-5-ol”, in the data set on urinary bladder, the IC50 was 2600 nM and 2200 nM. Also, in data set [1], the “mortality two days after oral administration” value is “no mouse died”.

Turning to `CCN(CC)[C@H]1CCc2ccccc2[C@](O)(c2cccs2)C1` (racemic) [(±)-cis-5-(2-thienyl)-7-diethylamino-6,7,8,9-tetrahydro-5H-benzocyclohepten-5-ol], the IC50 in the data set with urinary bladder is 1100 nM. As for `O[C@@]1(c2cccs2)C[C@@H](N2CCCCC2)CCc2ccccc21` (racemic) [(±)-cis-5-(2-thienyl)-7-(1-piperidinyl)-6,7,8,9-tetrahydro-5H-benzocyclohepten-5-ol], the IC50 in the data set with urinary bladder came to 700 nM.
